Drawing on patent US20220089568A1 (Janssen Biotech, Inc., priority 2019, published 2022), this text covers EC50 for 22 compounds.

Structures are written as SMILES.

Experiment [1] deals with T1, human DHODH (Homo sapiens, UniProt Q02127).
T1 construct: purchased Proteros PR-0044
In words: DHODH Enzymatic Assay. It is filed as biochemical. Conditions: purified human DHODH; DCIP absorbance, end-point mode. The procedure, abridged:
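Purified human DHODH activity read as absorbance of DCIP, the terminal electron acceptor, in […] pH 7.5, 150 mM NaCl, 0.5 mM EDTA, 0.1% Triton X-100. Reaction started with a substrate mix of 20 mM DHO, 5 mM CoQ6 and 1 mM DCIP in assay buffer.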

The test system of experiment [2] is MOLM-13 cells. In words: MOLM-13 Cellular Assay. It is filed as cell-based. Conditions: Homo sapiens, 72 hours exposure, cell viability by CellTiter-Glo. Here is the method:
The day prior to assay set-up, cells were pelleted, resuspended in fresh media, counted, and cells were plated at 0.4×10^6 cell/mL in a T150 flask. […] Cells were exposed to different concentrations of test compounds at 37° C., 5% CO2 for 72 hours immediately after seeding.
Background: Cellular ATP, detected with luciferase, serves as a proxy for viable cell number.

The term EC50 denotes the concentration giving half of the maximal effect.

T1 sequence (Q02127 whole entry): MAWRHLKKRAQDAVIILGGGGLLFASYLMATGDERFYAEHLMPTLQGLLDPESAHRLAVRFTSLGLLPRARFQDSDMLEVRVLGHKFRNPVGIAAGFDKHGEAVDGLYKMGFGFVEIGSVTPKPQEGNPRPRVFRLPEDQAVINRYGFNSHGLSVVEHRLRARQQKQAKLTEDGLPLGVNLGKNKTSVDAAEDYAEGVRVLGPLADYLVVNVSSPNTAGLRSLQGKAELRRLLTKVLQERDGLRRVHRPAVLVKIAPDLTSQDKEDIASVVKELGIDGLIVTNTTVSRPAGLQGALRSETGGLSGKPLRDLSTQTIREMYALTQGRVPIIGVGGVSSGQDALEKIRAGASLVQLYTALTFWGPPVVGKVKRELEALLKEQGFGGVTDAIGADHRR

As to `CCn1c(CO)nn(-c2nc(O[C@@H](C)C(F)(F)F)c(C(=O)Nc3cnc(OC)cc3Cl)cc2F)c1=O` [Example 50, (S)-N-(4-Chloro-6-methoxypyridin-3-yl)-6-(4-ethyl-3-(hydroxymethyl)-5-oxo-4,5-dihydro-1H-1,2,4-triazol-1-yl)-5-fluoro-2-((1,1,1-trifluoropropan-2-yl)oxy)nicotinamide], the figures for the EC50 in experiment [1] and in experiment [2] were 0.852 nM and 1.83 nM, respectively.
On to `CCn1c(CO)nn(-c2nc(O[C@@H](C)C(F)(F)F)c(C(=O)Nc3cc(C)cnc3C)cc2F)c1=O` [Example 51, (S)-N-(2,5-Dimethylpyridin-3-yl)-6-(4-ethyl-3-(hydroxymethyl)-5-oxo-4,5-dihydro-1H-1,2,4-triazol-1-yl)-5-fluoro-2-((1,1,1-trifluoropropan-2-yl)oxy)nicotinamide], for which the EC50 came out at 6.4 nM in experiment [1] and 52.4 nM in experiment [2].
For `CCn1c(CO)nn(-c2nc(O[C@@H](C)C(F)(F)F)c(C(=O)Nc3cc(Cl)cnc3C)cc2F)c1=O` [Example 52], the EC50 in experiment [1] turned out to be 13 nM; in experiment [2], 68.9 nM.
Take `CCn1c(CO)nn(-c2nc(O[C@@H](C)C(F)(F)F)c(C(=O)Nc3c(C)ccn(C)c3=O)cc2F)c1=O` [Example 53, N-(1,4-Dimethyl-2-oxo-2,3-dihydro-1l4-pyridin-3-yl)-6-(4-ethyl-3-(hydroxymethyl)-5-oxo-4,5-dihydro-1H-1,2,4-triazol-1-yl)-5-fluoro-2-(((S)-1,1,1-trifluoropropan-2-yl)oxy)nicotinamide]: the results for the EC50 in experiment [1] and in experiment [2] were 144 nM and more than 100 nM, respectively.
In the case of `CCn1c(CO)nn(-c2nc(O[C@@H](C)C(F)(F)F)c(C(=O)Nc3ncccc3Cl)cc2F)c1=O` [Example 54, (S)-N-(3-Chloropyridin-2-yl)-6-(4-ethyl-3-(hydroxymethyl)-5-oxo-4,5-dihydro-1H-1,2,4-triazol-1-yl)-5-fluoro-2-((1,1,1-trifluoropropan-2-yl)oxy)nicotinamide], the EC50 in experiment [1] worked out at 5.2 nM; in experiment [2] it was 6.9 nM.
Take `CCn1c(CO)nn(-c2nc(O[C@@H](C)C(F)(F)F)c(C(=O)Nc3c(C)nn(C)c3C)cc2F)c1=O` [Example 55, (S)-6-(4-Ethyl-3-(hydroxymethyl)-5-oxo-4,5-dihydro-1H-1,2,4-triazol-1-yl)-5-fluoro-2-((1,1,1-trifluoropropan-2-yl)oxy)-N-(1,3,5-trimethyl-1H-pyrazol-4-yl)nicotinamide]: the EC50 in experiment [1] was 17.3 nM; in experiment [2], more than 100 nM.
Taken in the same sequence, the figures for `CCn1c(CO)nn(-c2nc(O[C@@H](C)C(F)(F)F)c(C(=O)Nc3nc(OC)ccc3F)cc2F)c1=O` [Example 56, (S)-6-(4-Ethyl-3-(hydroxymethyl)-5-oxo-4,5-dihydro-1H-1,2,4-triazol-1-yl)-5-fluoro-N-(3-fluoro-6-methoxypyridin-2-yl)-2-((1,1,1-trifluoropropan-2-yl)oxy)nicotinamide] were 4.6 nM and 5.2 nM.
Turning to `CCn1c(CO)nn(-c2nc(O[C@@H](C)C(F)(F)F)c(C(=O)Nc3c[nH]nc3C)cc2F)c1=O` [Example 57, (S)-6-(4-Ethyl-3-(hydroxymethyl)-5-oxo-4,5-dihydro-1H-1,2,4-triazol-1-yl)-5-fluoro-N-(3-methyl-1H-pyrazol-4-yl)-2-((1,1,1-trifluoropropan-2-yl)oxy)nicotinamide], the EC50 in experiment [1] turned out to be 1.7 nM; in experiment [2], 20.2 nM.
Turning to `CCn1c(CO)nn(-c2nc(O[C@@H](C)C(F)(F)F)c(C(=O)Nc3c[nH]nc3OC)cc2F)c1=O` [Example 58, (S)-6-(4-Ethyl-3-(hydroxymethyl)-5-oxo-4,5-dihydro-1H-1,2,4-triazol-1-yl)-5-fluoro-N-(3-methoxy-1H-pyrazol-4-yl)-2-((1,1,1-trifluoropropan-2-yl)oxy)nicotinamide], the EC50 in experiment [1] is 5.8 nM; in experiment [2], 23.2 nM.
On to `CCn1c(CO)nn(-c2nc(O[C@@H](C)C(F)(F)F)c(C(=O)Nc3cc(C(C)C)nn3C)cc2F)c1=O` [Example 59, (S)-6-(4-Ethyl-3-(hydroxymethyl)-5-oxo-4,5-dihydro-1H-1,2,4-triazol-1-yl)-5-fluoro-N-(3-isopropyl-1-methyl-1H-pyrazol-5-yl)-2-((1,1,1-trifluoropropan-2-yl)oxy)nicotinamide], for which the results for the concentration for a half-maximal effect (EC50) in experiment [1] and in experiment [2] were 98.1 nM and more than 100 nM, respectively.
With `CCn1c(CO)nn(-c2nc(O[C@@H](C)C(F)(F)F)c(C(=O)Nc3ncnc(C)c3Cl)cc2F)c1=O` [Example 60, (S)-N-(5-Chloro-6-methylpyrimidin-4-yl)-6-(4-ethyl-3-(hydroxymethyl)-5-oxo-4,5-dihydro-1H-1,2,4-triazol-1-yl)-5-fluoro-2-((1,1,1-trifluoropropan-2-yl)oxy)nicotinamide], the EC50 was 254 nM in experiment [1] and more than 100 nM in experiment [2].
The matching figures for `CCn1c(CO)nn(-c2nc(O[C@@H](C)C(F)(F)F)c(C(=O)Nc3cn(C)nc3COC)cc2F)c1=O` [Example 61, (S)-6-(4-Ethyl-3-(hydroxymethyl)-5-oxo-4,5-dihydro-1H-1,2,4-triazol-1-yl)-5-fluoro-N-(3-(methoxymethyl)-1-methyl-1H-pyrazol-4-yl)-2-((1,1,1-trifluoropropan-2-yl)oxy)nicotinamide]: 365 nM and more than 100 nM.
The matching figures for `CCn1c(CO)nn(-c2nc(O[C@@H](C)C(F)(F)F)c(C(=O)Nc3c[nH]nc3C3CC3)cc2F)c1=O` [Example 62, (S)-N-(3-Cyclopropyl-1H-pyrazol-4-yl)-6-(4-ethyl-3-(hydroxymethyl)-5-oxo-4,5-dihydro-1H-1,2,4-triazol-1-yl)-5-fluoro-2-((1,1,1-trifluoropropan-2-yl)oxy)nicotinamide]: 2.7 nM and 8.5 nM.
Take `CCn1c(CO)nn(-c2nc(O[C@@H](C)C(F)(F)F)c(C(=O)Nc3cnn(CCOC)c3)cc2F)c1=O` [Example 63, (S)-6-(4-Ethyl-3-(hydroxymethyl)-5-oxo-4,5-dihydro-1H-1,2,4-triazol-1-yl)-5-fluoro-N-(1-(2-methoxyethyl)-1H-pyrazol-4-yl)-2-((1,1,1-trifluoropropan-2-yl)oxy)nicotinamide]: the values for the EC50 in experiment [1] and in experiment [2] were 865 nM and more than 100 nM, respectively.
Turning to `CCn1c(CO)nn(-c2nc(O[C@@H](C)C(F)(F)F)c(C(=O)Nc3c(Cl)ccc(=O)n3C)cc2F)c1=O` [Example 64, (S)-N-(3-Chloro-1-methyl-6-oxo-1,6-dihydropyridin-2-yl)-6-(4-ethyl-3-(hydroxymethyl)-5-oxo-4,5-dihydro-1H-1,2,4-triazol-1-yl)-5-fluoro-2-((1,1,1-trifluoropropan-2-yl)oxy)nicotinamide], the EC50 in experiment [1] is 101 nM; in experiment [2], more than 100 nM.
As to `CCn1c(CO)nn(-c2nc(O[C@@H](C)C(F)(F)F)c(C(=O)Nc3cc(OC)ncc3F)cc2F)c1=O` [Example 65, (S)-6-(4-Ethyl-3-(hydroxymethyl)-5-oxo-4,5-dihydro-1H-1,2,4-triazol-1-yl)-5-fluoro-N-(5-fluoro-2-methoxypyridin-4-yl)-2-((1,1,1-trifluoropropan-2-yl)oxy)nicotinamide], the EC50 in experiment [1] was 202 nM; in experiment [2], more than 100 nM.
In the case of `CCn1c(CO)nn(-c2nc(O[C@@H](C)C(F)(F)F)c(C(=O)Nc3cc(OC)ncc3C)cc2F)c1=O` [Example 66, (S)-6-(4-ethyl-3-(hydroxymethyl)-5-oxo-4,5-dihydro-1H-1,2,4-triazol-1-yl)-5-fluoro-N-(2-methoxy-5-methylpyridin-4-yl)-2-((1,1,1-trifluoropropan-2-yl)oxy)nicotinamide], the figures for the EC50 in experiment [1] and in experiment [2] were 9.9 nM and 19.9 nM, respectively.
Turning to `CCn1c(CO)nn(-c2nc(O[C@@H](C)C(F)(F)F)c(C(=O)Nc3cc(C)cnc3Cl)cc2F)c1=O` [Example 67, (S)-N-(2-Chloro-5-methylpyridin-3-yl)-6-(4-ethyl-3-(hydroxymethyl)-5-oxo-4,5-dihydro-1H-1,2,4-triazol-1-yl)-5-fluoro-2-((1,1,1-trifluoropropan-2-yl)oxy)nicotinamide], the figures for the EC50 in experiment [1] and in experiment [2] were 5.7 nM and 46.5 nM, respectively.
With `CCn1c(CO)nn(-c2nc(O[C@@H](C)C(F)(F)F)c(C(=O)Nc3c(C)ccnc3OC)cc2F)c1=O` [Example 68, (S)-6-(4-Ethyl-3-(hydroxymethyl)-5-oxo-4,5-dihydro-1H-1,2,4-triazol-1-yl)-5-fluoro-N-(2-methoxy-4-methylpyridin-3-yl)-2-((1,1,1-trifluoropropan-2-yl)oxy)nicotinamide], the EC50 in experiment [1] amounted to 0.87 nM; in experiment [2], 0.886 nM.
Consider `CCn1c(CO)nn(-c2nc(O[C@@H](C)C(F)(F)F)c(C(=O)Nc3c(Cl)ccnc3Cl)cc2F)c1=O` [Example 69, (S)-N-(2,4-Dichloropyridin-3-yl)-6-(4-ethyl-3-(hydroxymethyl)-5-oxo-4,5-dihydro-1H-1,2,4-triazol-1-yl)-5-fluoro-2-((1,1,1-trifluoropropan-2-yl)oxy)nicotinamide], for which the concentration for a half-maximal effect (EC50) in experiment [1] stood at 0.611 nM; in experiment [2] it was 0.673 nM.
With `CCOc1ncc(F)c(NC(=O)c2cc(F)c(-n3nc(CO)n(CC)c3=O)nc2O[C@@H](C)C(F)(F)F)n1` [Example 70, (S)-N-(2-Ethoxy-5-fluoropyrimidin-4-yl)-6-(4-ethyl-3-(hydroxymethyl)-5-oxo-4,5-dihydro-1H-1,2,4-triazol-1-yl)-5-fluoro-2-((1,1,1-trifluoropropan-2-yl)oxy)nicotinamide], the EC50 was 489 nM in experiment [1] and more than 100 nM in experiment [2].
Turning to `CCn1c(CO)nn(-c2nc(O[C@@H](C)C(F)(F)F)c(C(=O)Nc3c(C)cncc3F)cc2F)c1=O` [Example 71, (S)-6-(4-Ethyl-3-(hydroxymethyl)-5-oxo-4,5-dihydro-1H-1,2,4-triazol-1-yl)-5-fluoro-N-(3-fluoro-5-methylpyridin-4-yl)-2-((1,1,1-trifluoropropan-2-yl)oxy)nicotinamide], the EC50 in experiment [1] worked out at 5.6 nM; in experiment [2] it was 21.1 nM.
